Data on 16 molecules can be found in patent US11154519B2, “Inhibitors and their uses” (MEDICAL RESEARCH COUNCIL, priority 2015, dated 2021).

One data set has as its system R15A or R15B. The data set can be described thus: Selective binding towards R15A or R15B (based on SPR). Details: species or system human. As to the method: In one embodiment, the compounds of formula IB inhibit PPP1R15A and PPP1R15B. Inhibition of PPP1R15A and PPP1R15B can be determined from binding analysis. For example, binding can be analysed using SPR (surface plasmon resonance) to obtain KD values. A PPP1R15A and PPP1R15B inhibitor may be defined as a compound where the difference in KD values between R15A and R15B is no more than about 3 fold.
Small molecules were stored as 50 mM stock solutions in 100% DMSO. Prior to determining binding constants, serial dilutions of either 12 or 8 concentrations of the compounds were prepared in the running buffer in a 96-well plate. Prior to each compound dilution series the regulatory subunit, MBP-R15A^325-636-His or MBP-R15B^340-698-His, was diluted to 10 μM in the running buffer and captured on the bio-PP1c surface at a flow rate of 30 μl/min for 1 minute to form the holophosphatase complex on the sensor chip surface. This was followed by 1 minute stabilization period, to wash off any unspecific binding. Then, without regenerating the surface, the compound dilution series was injected onto the surface of the chip at a flow rate of 30 μl/min for 1 minute, followed by 2 minutes dissociation time. After each dilution series the surface was regenerated using 3 M NaCl for 90 seconds. After regeneration, SPR responses generally returned to base levels and the bio-PP1c surface was ready for the next compound dilution series. In order to be able to correct for small variations in DMSO concentration between samples, eight solvent samples ranging from 0.06 to 8% DMSO were injected every 50th cycle. The flow cell temperature was 10° C.
Sensorgrams were analyzed using the Biacore T200 evaluation software and the binding constants determined based on a steady-state model. Kinetic experiments are carried out using different concentrations of the compound and their respective equilibrium binding levels determined.

Data set [1] concerns HeLa cells. Description: Cytoprotection against ER stress (tunicamycin), IncuCyte. It is filed as cell-based. The conditions noted are these: Homo sapiens, 250 ng/ml Tunicamycin, 72 hours, compound 0-20 μM, read-out: Cytoprotection from Tm (compared to GNB). As to the method: (§1) HeLa cells (40,000 cells/ml) were plated in a 96-well plate and treated with different concentrations (0-20 μM) of a compound as indicated in the presence of 250 ng/ml Tunicamycin for 72 hours. To monitor cell death 1/2000 dilution of the CellTox green dye (Promega) was added to the media. The growth of the cells was monitored over time and pictures taken every 2 hours with the IncuCyte ZOOM system and analysed by the IncuCyte ZOOM software (Essen BioScience). […] Cytoprotection against ER stress can be measured by a suitable assay. In this instance, cytoprotection was measured in HeLa cells in which ER stress was elicited by the addition of media containing tunicamycin, a drug that blocks N-glycosylation, thereby preventing protein folding and inducing the unfolded protein response. Cell viability was then detected in the presence and absence of a compound listed in Table 1 after a set period of time, by monitoring cell growth over time. Cytoprotection from ER stress was measured in terms of the percentage increase in viable cells (relative to control) after ER stress.

For data set [2], the system named is HeLa cells. Description: Cell death dose response (CellTox green, IncuCyte). It is filed as cell-based. Conditions: for EC50: Homo sapiens, area under % cell death vs time curve against log conc, read-out: Effect on cell death ⇒ EC50; for Effect on cell death: IncuCyte, 0-20 μM. Here is the method:
Toxicity of the compounds is assessed using Cell viability Counting Kit-8 (Dojindo) or in a Incucyte (Essenbioscience) using both phase contrast and IncuCyte™ Cytotox Green Reagent.
as §1
EC50 were extrapolated from dose response experiments on cell death. Data from IncuCyte was plotted and analysed in Prism. The “% of cell death” for each data point. For each concentration there is a % of cell death vs time, the area under the curve was taken and plotted against log conc=>EC50 (analysis in Prism).

Turning to `[H]/N=C(\N)NN=Cc1ccc(Cl)cc1` [Compound 1, (E)-2-((4-chlorophenyl)methylene)hydrazine-1-carboximidamide], the “Selective binding towards R15A or R15B (based on SPR)” value with R15A or R15B was “R15AB (A PPP1R15A and PPP1R15B inhibitor may be defined as a compound where the difference in KD values between R15A and R15B is no more than about 3 fold)”. For the same molecule, in the data set with HeLa cells [1], the Emax stood at 0%. In the data set on HeLa cells [2], the EC50 was found to be 4.9 µM and the “Effect on cell death” value was “Yes”.

Turning to `N=C(N)N/N=C/c1cc(Cl)c(Cl)c(Cl)c1` [Compound 3, (E)-2-(3,4,5-trichlorobenzylidene)hydrazine-1-carboximidamide], the “Selective binding towards R15A or R15B (based on SPR)” value in the data set with R15A or R15B was “R15AB (A PPP1R15A and PPP1R15B inhibitor may be defined as a compound where the difference in KD values between R15A and R15B is no more than about 3 fold)”. Moreover, the Emax in the data set with HeLa cells [1] worked out at 52%. Besides, in the data set on HeLa cells [2], the EC50 is 9.17 µM and the “Effect on cell death” value is listed as “Yes”.

For the molecule `[H]/N=C(\N)NN=Cc1cc(Cl)c(F)c(Cl)c1` [Compound 5, (E)-2-(3,5-dichloro-4-fluorobenzylidene)hydrazine-1-carboximidamide], the “Selective binding towards R15A or R15B (based on SPR)” value in the data set with R15A or R15B is “R15AB (A PPP1R15A and PPP1R15B inhibitor may be defined as a compound where the difference in KD values between R15A and R15B is no more than about 3 fold)”. Also, the Emax in the data set on HeLa cells [1] was found to be 48%. Also, in the data set on HeLa cells [2], the EC50 worked out at 9.46 µM and the “Effect on cell death” value is “Yes”.

With `[H]/N=C(\N)NN=Cc1ccc(Cl)c(Cl)c1Cl` [Compound 6, (E)-2-(2,3,4-trichlorobenzylidene)hydrazine-1-carboximidamide], the “Selective binding towards R15A or R15B (based on SPR)” value in the data set with R15A or R15B is “R15AB (A PPP1R15A and PPP1R15B inhibitor may be defined as a compound where the difference in KD values between R15A and R15B is no more than about 3 fold)”. Besides, the Emax in the data set on HeLa cells [1] was determined as 61%. Further, in the data set with HeLa cells [2], the EC50 was 9.65 µM and the “Effect on cell death” value is reported as “Yes”.

Take `[H]/N=C(\N)NN=Cc1cc(F)c(Cl)cc1Cl` [Compound 7, (E)-2-(2,4-dichloro-5-fluorobenzylidene)hydrazine-1-carboximidamide]: the “Selective binding towards R15A or R15B (based on SPR)” value in the data set on R15A or R15B was “R15AB (A PPP1R15A and PPP1R15B inhibitor may be defined as a compound where the difference in KD values between R15A and R15B is no more than about 3 fold)”. Besides, the Emax in the data set on HeLa cells [1] was 46%. Further, in the data set on HeLa cells [2], the EC50 came to 11.5 µM and the “Effect on cell death” value is listed as “Yes”.

On to `[H]/N=C(\N)NN=Cc1ccc(Cl)c(F)c1` [Compound 8, (E)-2-(4-chloro-3-fluorobenzylidene)hydrazine-1-carboximidamide], for which, in the data set with R15A or R15B, the “Selective binding towards R15A or R15B (based on SPR)” value was “R15AB (A PPP1R15A and PPP1R15B inhibitor may be defined as a compound where the difference in KD values between R15A and R15B is no more than about 3 fold)”. The Emax in the data set with HeLa cells [1] stood at 0%. Further, in the data set on HeLa cells [2], the EC50 was determined as 11.7 µM and the “Effect on cell death” value is listed as “Yes”.

For the molecule `[H]/N=C(\N)NN=Cc1cccc(Cl)c1Br` [Compound 9, (E)-2-(2-bromo-3-chlorobenzylidene)hydrazine-1-carboximidamide], in the data set with R15A or R15B, the “Selective binding towards R15A or R15B (based on SPR)” value was “R15A (A “selective inhibitor” may be defined as a compound where the difference in KD values between R15A and R15B is greater than 3 fold)”. In addition, the Emax in the data set with HeLa cells [1] turned out to be 67%. Also, in the data set with HeLa cells [2], the EC50 came to 12 µM and the “Effect on cell death” value is recorded as “Yes”.

For the molecule `[H]/N=C(\N)NN=Cc1cc(Cl)cc(Cl)c1Cl` [Compound 10, (E)-2-(2,3,5-trichlorobenzylidene)hydrazine-1-carboximidamide], in the data set with R15A or R15B, the “Selective binding towards R15A or R15B (based on SPR)” value is “R15AB (A PPP1R15A and PPP1R15B inhibitor may be defined as a compound where the difference in KD values between R15A and R15B is no more than about 3 fold)”. Further, in the data set on HeLa cells [1], the Emax was determined as 85%. In the data set with HeLa cells [2], the 50% effective concentration (EC50) is 12.5 µM and the “Effect on cell death” value was “Yes”.

For `[H]/N=C(\N)NN=Cc1ccc(Cl)c(Cl)c1` [Compound 11, (E)-2-(3,4-dichlorobenzylidene)hydrazine-1-carboximidamide], the “Selective binding towards R15A or R15B (based on SPR)” value in the data set with R15A or R15B is “R15AB (A PPP1R15A and PPP1R15B inhibitor may be defined as a compound where the difference in KD values between R15A and R15B is no more than about 3 fold)”. Further, the Emax with HeLa cells [1] is 34%. In addition, in the data set on HeLa cells [2], the EC50 was 12.7 µM and the “Effect on cell death” value is “Yes”.

Consider `[H]/N=C(\N)NN=Cc1ccc(Cl)c(F)c1Cl` [Compound 13, (E)-2-(2,4-dichloro-3-fluorobenzylidene)hydrazine-1-carboximidamide], for which the “Selective binding towards R15A or R15B (based on SPR)” value with R15A or R15B was “R15AB (A PPP1R15A and PPP1R15B inhibitor may be defined as a compound where the difference in KD values between R15A and R15B is no more than about 3 fold)”. Further, in the data set on HeLa cells [1], the Emax came to 73%. Also, in the data set with HeLa cells [2], the EC50 is 15.5 µM and the “Effect on cell death” value is reported as “Yes”.

With `[H]/N=C(\N)NN=Cc1ccc(F)c(Cl)c1Cl` [Compound 14, (E)-2-(2,3-dichloro-4-fluorobenzylidene)hydrazine-1-carboximidamide], in the data set with R15A or R15B, the “Selective binding towards R15A or R15B (based on SPR)” value is “R15AB (A PPP1R15A and PPP1R15B inhibitor may be defined as a compound where the difference in KD values between R15A and R15B is no more than about 3 fold)”. For the same molecule, in the data set with HeLa cells [1], the Emax was found to be 100%. In the data set with HeLa cells [2], the 50% effective concentration (EC50) came to 18.4 µM and the “Effect on cell death” value is listed as “Yes”.

With `[H]/N=C(\N)NN=Cc1ccc(F)c(Cl)c1` [Compound 15, (E)-2-(3-chloro-4-fluorobenzylidene)hydrazine-1-carboximidamide], in the data set with R15A or R15B, the “Selective binding towards R15A or R15B (based on SPR)” value is “R15AB (A PPP1R15A and PPP1R15B inhibitor may be defined as a compound where the difference in KD values between R15A and R15B is no more than about 3 fold)”. For the same molecule, the Emax with HeLa cells [1] came to 46%. Moreover, in the data set with HeLa cells [2], the EC50 is 19.5 µM and the “Effect on cell death” value is on record as “Yes”.

Take `[H]/N=C(\N)NN=Cc1cccc(Cl)c1Cl` [Compound 16, (E)-2-(2,3-dichlorobenzylidene)hydrazine-1-carboximidamide]: the “Selective binding towards R15A or R15B (based on SPR)” value in the data set on R15A or R15B is “R15B (A “selective inhibitor” may be defined as a compound where the difference in KD values between R15A and R15B is greater than 3 fold)”. Also, the Emax in the data set on HeLa cells [1] came out at 92%. In addition, in the data set on HeLa cells [2], the EC50 worked out at 20.8 µM and the “Effect on cell death” value is “Yes”.

With `[H]/N=C(\N)NN=Cc1ccccc1F` [Compound 17, (E)-2-(2-fluorobenzylidene)hydrazine-1-carboximidamide], the “Selective binding towards R15A or R15B (based on SPR)” value with R15A or R15B is “R15AB (A PPP1R15A and PPP1R15B inhibitor may be defined as a compound where the difference in KD values between R15A and R15B is no more than about 3 fold)”. The Emax in the data set with HeLa cells [1] stood at 66%. Besides, the “Effect on cell death” value in the data set with HeLa cells [2] is reported as “No”.

For `N=C(N)N/N=C/c1cc(Cl)c(Cl)cc1F` [Compound 18, (E)-2-(4,5-dichloro-2-fluorobenzylidene)hydrazine-1-carboximidamide], in the data set on R15A or R15B, the “Selective binding towards R15A or R15B (based on SPR)” value was “R15AB (A PPP1R15A and PPP1R15B inhibitor may be defined as a compound where the difference in KD values between R15A and R15B is no more than about 3 fold)”. In the data set on HeLa cells [1], the Emax turned out to be 54%. Besides, in the data set on HeLa cells [2], the EC50 is 23.8 µM and the “Effect on cell death” value was “Yes”.

For the molecule `[H]/N=C(\N)NN=Cc1cc(F)ccc1Cl` [Compound 20, (E)-2-(2-chloro-5-fluorobenzylidene)hydrazine-1-carboximidamide], the “Selective binding towards R15A or R15B (based on SPR)” value in the data set with R15A or R15B was “R15AB (A PPP1R15A and PPP1R15B inhibitor may be defined as a compound where the difference in KD values between R15A and R15B is no more than about 3 fold)”. Further, the Emax in the data set with HeLa cells [1] amounted to 88%. In the data set on HeLa cells [2], the EC50 stood at 37.8 µM and the “Effect on cell death” value is “Yes”.

The EC50 is the concentration giving half of the maximal effect.
